Tested on: ERISU (Conyza sumatrensis, Sumatran fleabane)
Test: greenhouse post-emergence foliar weed control, visual score 0-100 percent
Assay type: in vivo
Settings: 49 gai/ha
From the text: Results in Examples are greenhouse trial results.
Seeds or nutlets of the desired test plant species were planted in a soil matrix prepared by mixing a loam or sandy loam soil (e.g., 28.6 percent silt, 18.8 percent clay, and 52.6 percent sand, with a pH of about 5.8 and an organic matter content of about 1.8 percent) and calcareous grit in an 80 to 20 ratio. The soil matrix was contained in plastic pots with a volume of 1 quart and a surface area of 83.6 cm2. When required to ensure good germination and healthy plants, a fungicide treatment and/or other chemical or physical treatment was applied. The plants were grown for 8-22 days in a greenhouse with an approximate 14 h photoperiod which was maintained at about 29° C. during the day and 26° C. during the night. Nutrients (Peters Excel® 15-5-15 5-Ca 2-Mg and iron chelate) were applied in the irrigation solution as needed and water was added on a regular basis. Supplemental lighting was provided with overhead metal halide 1000-Watt lamps as necessary. The plants were employed for testing when they reached the first through fourth true leaf stage.
Treatments comprised of the acid or esters of halauxifen-methyl (methyl 4-amino-3-chloro-6-(4-chloro-2-fluoro-3-methoxyphenyl)picolinate), each formulated as an SC (suspension concentrate), and various herbicidal components alone and in combination. A form of the compound of Formula I were applied on an acid equivalent basis.
Treatment requirements were calculated based upon the rates being tested, the concentration of active ingredient or acid equivalent in the formulation, and a 12 mL application volume at a rate of 187 L/ha.
For treatments comprised of formulated and technical compounds, weighed amounts of the technical materials were placed individually in 25 mL glass vials and dissolved in a volume of 97:3 v/v acetone/DMSO to obtain 12× stock solutions, and measured amounts of the formulated compounds were placed individually in 25 mL glass vials and diluted in a volume of 1.5% (v/v) crop oil concentrate or water to obtain 12× stock solutions. […] As required, additional water and/or 97:3 v/v acetone/DMSO was added to individual application solutions so that the final acetone and DMSO concentrations of the application solutions being compared were 8.1% and 0.25%, respectively.
All stock solutions and applications solutions were visually inspected for compound compatibility prior to application. Spray solutions were applied to the plant material with an overhead Mandel track sprayer equipped with an 8002E nozzle calibrated to deliver 187 L/ha over an application area of 0.503 m2 at a spray height of 18 to 20 inches (46 to 50 cm) above average plant canopy height. Control plants were sprayed in the same manner with the solvent blank.
The treated plants and control plants were placed in a greenhouse as described above and watered by sub-irrigation to prevent wash-off of the test compounds. […]
Table 1 illustrates weed control for foliar applications of compositions comprising halauxifen-methyl+2,4-D-dimethylammonium (2,4-D-DMA)+saflufenacil on various broadleaf weeds. […] The compositions disclosed herein can be used in burndown and fallow crop applications or in herbicide tolerant crops. These compositions can be used for broad-spectrum control of broadleaf weeds including, but not limited to, ALS, auxinic, HPPD, PPO, saflufenacil and glyphosate resistant broadleaf weeds. The compositions disclosed herein can have utility in AAD1 and AAD12 monocot and dicot crops whereby there is crop tolerance to all 3 modes of action, providing growers with a solution to control susceptible and resistant broadleaf weeds, as well as to delay the development of resistance by the use of 3 modes of action product. The compositions disclosed herein can be used in non-crop and R&P/IVM situations, post directed in perennial crops, and potentially across many crops where there is tolerance to all 3 modes of action.

## CC(C)N(C)S(=O)(=O)NC(=O)c1cc(-n2c(=O)cc(C(F)(F)F)n(C)c2=O)c(F)cc1Cl [saflufenacil, 2-chloro-5-[3,6-dihydro-3-methyl-2,6-dioxo-4-(trifluoromethyl)-1(2H)-pyrimidinyl]-4-fluoro-N-[[methyl(1-methylethyl)amino]sulfonyl]benzamide]
Trial 1, ERISU, 17DAA
  Chem 2 Actual Mean % Weed Control: 52.50%
Trial 1, ERISU, 28DAA
  Chem 2 Actual Mean % Weed Control: 66.25%
Trial 1, ERISU, 43DAA
  Chem 2 Actual Mean % Weed Control: 77.50%
Trial 2, ERISU, 17DAA
  Chem 2 Actual Mean % Weed Control: 66.25%
Trial 2, ERISU, 28DAA
  Chem 2 Actual Mean % Weed Control: 97.50%
Trial 2, ERISU, 43DAA
  Chem 2 Actual Mean % Weed Control: 98.25%

Reference: patent US20220015361A1, “COMPOSITIONS COMPRISING HALAUXIFEN AND OTHER HERBICIDES AND METHODS THEREOF” (DOW AGROSCIENCES LLC, priority 2018, published 2022)
